# Reference: PubChem BioAssay (NCI)
#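 Five concentrations, 48 hours, 96-well plates. Abbreviation: GI50, concentration required for 50% inhibition of growth. TGI is the concentration that stops growth completely.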
# Experiments:
# Assay in all cases: growth of human tumour cells (NCI), 48 h
# LOX IMVI melanoma = system: LOX IMVI melanoma
# A498 renal = system: A498 renal
# ACHN renal = system: ACHN renal
# SN12C renal = system: SN12C renal
# SNB-19 CNS = system: SNB-19 CNS
# MOLT-4 leukemia = system: MOLT-4 leukemia
# TK-10 renal = system: TK-10 renal
# HCT-15 colon = system: HCT-15 colon
# HOP-62 NSCLC = system: HOP-62 NSCLC
# U251 CNS = system: U251 CNS
# SR leukemia = system: SR leukemia
# RXF 393 renal = system: RXF 393 renal
# SK-MEL-28 melanoma = system: SK-MEL-28 melanoma
# HS 578T breast = system: HS 578T breast
# SF-295 CNS = system: SF-295 CNS
# MDA-MB-231 breast = system: MDA-MB-231 breast
# DU-145 prostate = system: DU-145 prostate
# OVCAR-5 ovarian = system: OVCAR-5 ovarian
# M14 melanoma = system: M14 melanoma
# NCI/ADR-RES ovarian = system: NCI/ADR-RES ovarian
# SK-MEL-5 melanoma = system: SK-MEL-5 melanoma
# NCI-H23 lung = system: NCI-H23 lung
# NCI-H460 lung = system: NCI-H460 lung
# MDA-MB-435 = system: MDA-MB-435
# HCT-116 colon = system: HCT-116 colon
# CCRF-CEM leukemia = system: CCRF-CEM leukemia
# COLO 205 colon = system: COLO 205 colon
# BT-549 breast = system: BT-549 breast
# KM12 colon = system: KM12 colon
# EKVX NSCLC = system: EKVX NSCLC
# UACC-62 melanoma = system: UACC-62 melanoma
# NCI-H522 lung = system: NCI-H522 lung
# PC-3 prostate = system: PC-3 prostate
# HCC-2998 colon = system: HCC-2998 colon
# OVCAR-8 ovarian = system: OVCAR-8 ovarian
# NCI-H226 lung = system: NCI-H226 lung
# HT29 colon = system: HT29 colon
# A549 NSCLC = system: A549 NSCLC
# OVCAR-3 ovarian = system: OVCAR-3 ovarian
# 786-0 renal = system: 786-0 renal
# MCF7 breast = system: MCF7 breast
# SNB-75 CNS = system: SNB-75 CNS
# CAKI-1 renal = system: CAKI-1 renal
# SK-OV-3 ovarian = system: SK-OV-3 ovarian
# RPMI-8226 leukemia = system: RPMI-8226 leukemia
# MALME-3M melanoma = system: MALME-3M melanoma
# T-47D breast = system: T-47D breast
# IGROV1 ovarian = system: IGROV1 ovarian
# SF-268 CNS = system: SF-268 CNS
# HL-60(TB) leukemia = system: HL-60(TB) leukemia
# SW-620 colon = system: SW-620 colon
# HOP-92 NSCLC = system: HOP-92 NSCLC
# UO-31 renal = system: UO-31 renal
# OVCAR-4 ovarian = system: OVCAR-4 ovarian
# SF-539 CNS = system: SF-539 CNS
# UACC-257 melanoma = system: UACC-257 melanoma
structure (smiles),measurement,setting,value
Clc1nc(Cl)c2ncn(CC3(Cn4cnc5c(Cl)nc(Cl)nc54)COC3)c2n1,GI50,LOX IMVI melanoma,180 nM
same,TGI,LOX IMVI melanoma,349 nM
same,GI50,A498 renal,1780 nM
same,TGI,A498 renal,3460 nM
same,GI50,ACHN renal,570 nM
same,TGI,ACHN renal,1120 nM
same,GI50,SN12C renal,260 nM
same,TGI,SN12C renal,776 nM
same,GI50,SNB-19 CNS,332 nM
same,TGI,SNB-19 CNS,803 nM
same,GI50,MOLT-4 leukemia,462 nM
same,GI50,TK-10 renal,601 nM
same,TGI,TK-10 renal,1200 nM
same,GI50,HCT-15 colon,178 nM
same,TGI,HCT-15 colon,361 nM
same,GI50,HOP-62 NSCLC,221 nM
same,TGI,HOP-62 NSCLC,426 nM
same,GI50,U251 CNS,181 nM
same,TGI,U251 CNS,331 nM
same,GI50,SR leukemia,407 nM
same,TGI,SR leukemia,> 100000 nM
same,GI50,RXF 393 renal,196 nM
same,TGI,RXF 393 renal,405 nM
same,GI50,SK-MEL-28 melanoma,212 nM
same,TGI,SK-MEL-28 melanoma,396 nM
same,GI50,HS 578T breast,316 nM
same,TGI,HS 578T breast,868 nM
same,GI50,SF-295 CNS,1560 nM
same,TGI,SF-295 CNS,3100 nM
same,GI50,MDA-MB-231 breast,190 nM
same,TGI,MDA-MB-231 breast,371 nM
same,GI50,DU-145 prostate,183 nM
same,TGI,DU-145 prostate,335 nM
same,GI50,OVCAR-5 ovarian,634 nM
same,TGI,OVCAR-5 ovarian,1200 nM
same,GI50,M14 melanoma,274 nM
same,TGI,M14 melanoma,753 nM
same,GI50,NCI/ADR-RES ovarian,257 nM
same,TGI,NCI/ADR-RES ovarian,573 nM
same,GI50,SK-MEL-5 melanoma,259 nM
same,TGI,SK-MEL-5 melanoma,855 nM
same,GI50,NCI-H23 lung,194 nM
same,TGI,NCI-H23 lung,392 nM
same,GI50,NCI-H460 lung,222 nM
same,TGI,NCI-H460 lung,447 nM
same,GI50,MDA-MB-435,234 nM
same,TGI,MDA-MB-435,613 nM
same,GI50,HCT-116 colon,182 nM
same,TGI,HCT-116 colon,350 nM
same,GI50,CCRF-CEM leukemia,221 nM
same,TGI,CCRF-CEM leukemia,471 nM
same,GI50,COLO 205 colon,184 nM
same,TGI,COLO 205 colon,356 nM
same,GI50,BT-549 breast,501 nM
same,TGI,BT-549 breast,1690 nM
same,GI50,KM12 colon,362 nM
same,TGI,KM12 colon,1010 nM
same,GI50,EKVX NSCLC,821 nM
same,TGI,EKVX NSCLC,2430 nM
same,GI50,UACC-62 melanoma,283 nM
same,TGI,UACC-62 melanoma,903 nM
same,GI50,NCI-H522 lung,966 nM
same,TGI,NCI-H522 lung,3070 nM
same,GI50,PC-3 prostate,188 nM
same,TGI,PC-3 prostate,348 nM
same,GI50,HCC-2998 colon,221 nM
same,TGI,HCC-2998 colon,389 nM
same,GI50,OVCAR-8 ovarian,256 nM
same,TGI,OVCAR-8 ovarian,532 nM
same,GI50,NCI-H226 lung,1770 nM
same,TGI,NCI-H226 lung,3680 nM
same,GI50,HT29 colon,226 nM
same,TGI,HT29 colon,> 100000 nM
same,GI50,A549 NSCLC,273 nM
same,TGI,A549 NSCLC,1190 nM
same,GI50,OVCAR-3 ovarian,202 nM
same,TGI,OVCAR-3 ovarian,360 nM
same,GI50,786-0 renal,762 nM
same,TGI,786-0 renal,2370 nM
same,GI50,MCF7 breast,188 nM
same,TGI,MCF7 breast,428 nM
same,GI50,SNB-75 CNS,201 nM
same,TGI,SNB-75 CNS,395 nM
same,GI50,CAKI-1 renal,195 nM
same,TGI,CAKI-1 renal,496 nM
same,GI50,SK-OV-3 ovarian,1610 nM
same,TGI,SK-OV-3 ovarian,2980 nM
same,GI50,RPMI-8226 leukemia,1860 nM
same,TGI,RPMI-8226 leukemia,59100 nM
same,GI50,MALME-3M melanoma,187 nM
same,TGI,MALME-3M melanoma,433 nM
same,GI50,T-47D breast,179 nM
same,TGI,T-47D breast,391 nM
same,GI50,IGROV1 ovarian,209 nM
same,TGI,IGROV1 ovarian,405 nM
same,GI50,SF-268 CNS,196 nM
same,TGI,SF-268 CNS,372 nM
same,GI50,HL-60(TB) leukemia,354 nM
same,TGI,HL-60(TB) leukemia,2780 nM
same,GI50,SW-620 colon,257 nM
same,TGI,SW-620 colon,651 nM
same,GI50,HOP-92 NSCLC,330 nM
same,TGI,HOP-92 NSCLC,876 nM
same,GI50,UO-31 renal,623 nM
same,TGI,UO-31 renal,1350 nM
same,GI50,OVCAR-4 ovarian,276 nM
same,TGI,OVCAR-4 ovarian,763 nM
same,GI50,SF-539 CNS,1240 nM
same,TGI,SF-539 CNS,2550 nM
same,GI50,UACC-257 melanoma,197 nM
same,TGI,UACC-257 melanoma,427 nM
